Read-outs that look alike come from different tables or passages of the source.
Biological target: T1, full-length human cGAS (Homo sapiens, UniProt Q8N884)
T1 construct: The cGAS assay was used to screen 100,000 compounds with full-length human cGAS; 6xHis; made in house
Test: cGAS enzymatic assay (FP readout), inhibition of cGAS
Format: biochemical
Experimental: Some exemplary compounds of the disclosure were tested for inhibition of cGAS (30 nM). The results are provided in Table 1 where “A” indicates an IC50 of less than 100 nM, “B” indicates an IC50 of greater than 100 nM and less than 500 nM, “C” indicates an IC50 of greater than 500 nM and less than 1 μM, “D” indicates an IC50 of greater than 1 μM and less than 10 μM, and “E” indicates an IC50 of greater than 10 μM.
A homogenous cGAS enzymatic assay was developed with fluorescence polarization (FP) and time-resolved Forster resonance energy transfer (TR-FRET) readouts (FIG. 2A-D). The cGAS assay was used to screen 100,000 compounds with full-length human cGAS (FIG. 2E), resulting in the identification of novel chemotypes, two of which are further developed in a structure-driven hit-to-lead study (Table 3, below). The assay performance was robust, as indicated by respective Z and Z′ values of 0.59 and 0.63 in the screen; compounds with polarization values greater than three SDs from the mean were considered hits; a scatterplot from 10 plates (3,200 compounds) is shown in FIG. 2D.
Potency and MOA studies, including Mn^2+ sensitivity, are performed using the cGAS enzymatic assay. Dose response experiments are used to determine IC50 values under basal conditions (5 mM MgCl2, 100 μM ATP/GTP), and with the addition of physiological levels of Mn (0.2 mM) using human and mouse cGAS. Ligand optimization is driven by potency with the human enzyme; potency with mouse cGAS informs selection of an appropriate disease model for efficacy studies. Competition with ATP and GTP is assessed by comparing basal IC50 values to those in the presence of saturating ATP or GTP, and subsequently confirmed by measuring velocity vs. substrate at varying ATP or GTP levels. Inhibitor residence times (1/koff) are used as a key parameter for prioritizing compounds and driving SAR, because a longer residence time often results from an allosteric mechanism, and can also correlate with improved cellular activity. The cGAS enzymatic assay is used with the jump dilution method to measure residence times (inhibitor dissociation rates), as described for kinases using the very similar ADP assay. Biophysical methods, including SPR and TSAn, are used as orthologous methods for residence time measurements and kd estimates.

[1] = cGAS (30 nM), no Mn2+, read-out: Inhibition cGAS (IC50 class)
[2] = cGAS (30 nM), with Mn2+, read-out: Inhibition cGAS + Mn^2+ (IC50 class)

T1 sequence (Q8N884 whole entry): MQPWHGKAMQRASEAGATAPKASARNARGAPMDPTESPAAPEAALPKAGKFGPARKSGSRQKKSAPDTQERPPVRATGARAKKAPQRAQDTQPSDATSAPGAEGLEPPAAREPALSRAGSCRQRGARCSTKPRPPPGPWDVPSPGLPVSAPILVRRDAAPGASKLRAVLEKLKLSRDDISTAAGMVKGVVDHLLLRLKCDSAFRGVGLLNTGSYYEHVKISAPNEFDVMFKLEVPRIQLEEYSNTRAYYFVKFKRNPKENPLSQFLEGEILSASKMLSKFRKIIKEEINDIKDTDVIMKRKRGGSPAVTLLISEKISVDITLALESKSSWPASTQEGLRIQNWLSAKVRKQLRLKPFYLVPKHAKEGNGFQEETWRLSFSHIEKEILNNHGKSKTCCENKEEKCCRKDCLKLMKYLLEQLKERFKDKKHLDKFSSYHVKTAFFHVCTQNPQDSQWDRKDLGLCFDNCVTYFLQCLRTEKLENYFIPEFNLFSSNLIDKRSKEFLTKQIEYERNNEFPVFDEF

IC50 (5 mM Mg2+, 0.2 mM Mn2+, read-out: IC50 (5 mM Mg^2+, 0.2 mM Mn^2+)) [nM]	IC50 (5 mM Mg2+, no Mn2+, read-out: IC50 (5 mM Mg^2+)) [nM]	IC50 [1] [nM]	IC50 [2] [nM]	Effect of Mn^2+ on potency against cGAS (Mn2+ at physiological concentration (200 μM))	SMILES
790	5400	1000 to 10000	100 to 500		Clc1ccc2c(-n3ccnc3)ccnc2c1 [Compound 1, 7-chloro-4-(1H-imidazol-1-yl)quinolone]
		> 10000	> 10000		O=C(O)CNc1nc(-c2ccccc2)nc2ccccc12 [Compound 2, (2-phenylquinazolin-4-yl)glycine]
		> 10000	1000 to 10000		COc1ccc2nccc(-n3ccnc3)c2c1 [Compound 3, 4-(1H-imidazol-1-yl)-6-methoxyquinoline]
		1000 to 10000	100 to 500		Brc1ccc2c(-n3ccnc3)ccnc2c1 [Compound 4, 7-bromo-4-(1H-imidazol-1-yl)quinoline]
		> 10000	> 10000		Clc1ccc2c(-n3ccnc3)ncnc2c1 [Compound 5, 7-chloro-4-(1H-imidazol-1-yl)quinazoline]
		> 10000	1000 to 10000		COc1ccc2c(-n3ccnc3)ccnc2c1 [Compound 6, 4-(1H-imidazol-1-yl)-7-methoxyquinoline]
		> 10000	1000 to 10000		Brc1ccc2nccc(-n3ccnc3)c2c1 [Compound 7, 6-bromo-4-(1H-imidazol-1-yl)quinoline]
		> 10000	> 10000		Fc1ccc2c(-n3ccnc3)ccnc2c1 [Compound 8, 7-fluoro-4-(1H-imidazol-1-yl)quinoline]
			> 10000		Nc1ccc2c(-n3ccnc3)ccnc2c1 [Compound 9, 4-(1H-imidazol-1-yl)quinolin-7-amine]
			1000 to 10000		c1ccc(-c2ccc3nccc(-n4ccnc4)c3c2)cc1 [Compound 10, 4-(1H-imidazol-1-yl)-6-phenylquinoline]
		> 10000	1000 to 10000		Nc1ccc2nccc(-n3ccnc3)c2c1 [Compound 11, 4-(1H-imidazol-1-yl)quinolin-6-amine]
		1000 to 10000	100 to 500		Clc1ccc2c(-n3ccnc3)cc(-c3ccccc3)nc2c1 [Compound 12, 7-chloro-4-(1H-imidazol-1-yl)-2-phenylquinoline]
		500 to 1000	100 to 500		Clc1ccc2c(-n3ccnc3)c(-c3ccccc3)cnc2c1 [Compound 13, 7-chloro-4-(1H-imidazol-1-yl)-3-phenylquinoline]
		100 to 500	< 100		COc1cc2c(-n3ccnc3)c(C(=O)O)cnc2cc1Cl [Compound 15, 7-chloro-4-(1H-imidazol-1-yl)-6-methoxyquinoline-3-carboxylic acid]
		1000 to 10000	500 to 1000		Cc1cc2c(-n3ccnc3)ccnc2cc1Cl [Compound 16, 7-chloro-4-(1H-imidazol-1-yl)-6-methylquinoline]
		1000 to 10000	> 10000		COc1cc2c(N3CCC[C@H]3C(=O)O)nc(-c3ccccc3)nc2cc1Cl [Compound 17, (7-chloro-6-methoxy-2-phenylquinazolin-4-yl)-L-proline]
		500 to 1000	100 to 500		Cc1cc(-n2ccnc2)c2ccc(Cl)cc2n1 [Compound 18, 7-chloro-4-(1H-imidazol-1-yl)-2-methylquinoline]
		500 to 1000			Nc1cc(-n2ccnc2)c2ccc(Cl)cc2n1 [Compound 19, 7-chloro-4-(1H-imidazol-1-yl)quinolin-2-amine]
		100 to 500	< 100		COc1cc2c(-n3ccnc3)ccnc2cc1Br [Compound 22, 7-bromo-4-(1H-imidazol-1-yl)-6-methoxyquinoline]
		500 to 1000	100 to 500		CCOc1cc2c(-n3ccnc3)ccnc2cc1Cl [Compound 23, 7-chloro-6-ethoxy-4-(1H-imidazol-1-yl)quinolone]
		> 10000			Cc1ccc(S(=O)(=O)Nc2ccc(C(=O)Nc3ccncc3)cc2)cc1 [Compound 24, 4-((4-methylphenyl)sulfonamido)-N-(pyridin-4-yl)benzamide]
		> 10000	> 10000		O=C(Cc1ccccc1)Nc1ccc(C(=O)Nc2ccccc2C(=O)O)cc1 [Compound 25, 2-(4-(2-phenylacetamido)benzamido)benzoic acid]
		> 10000	> 10000		O=C(Cc1ccccc1)Nc1ccc(C(=O)Nc2ccc(C(=O)O)cc2)cc1 [Compound 26, 4-(4-(2-phenylacetamido)benzamido)benzoic acid]
		> 10000	> 10000		O=C(Nc1ccc(C(=O)Nc2ccccc2C(=O)O)cc1)c1ccc(I)cc1 [Compound 27, 2-(4-(4-iodobenzamido)benzamido)benzoic acid]
		> 10000	> 10000		O=C(Nc1ccccc1C(=O)O)c1ccc(NC(=O)c2ccccc2Br)cc1 [Compound 28, 2-(4-(2-bromobenzamido)benzamido)benzoic acid]
		> 10000	> 10000		COc1ccc(CC(=O)Nc2cccc(C(=O)Nc3ccccc3C(=O)O)c2)cc1 [Compound 29, 2-(3-(2-(4-methoxyphenyl)acetamido)benzamido)benzoic acid]
		> 10000			COc1ccccc1CC(=O)Nc1cccc(C(=O)Nc2ccccc2C(=O)O)c1 [Compound 30, 2-(3-(2-(2-methoxyphenyl)acetamido)benzamido)benzoic acid]
		> 10000			O=C(NCc1ccccc1)c1nc2[nH]c3c(c(=O)n2n1)CCC3 [Compound 31, N-benzyl-8-oxo-5,6,7,8-tetrahydro-4H-cyclopenta[d][1,2,4]triazolo[1,5-a]pyrimidine-2-carboxamide]
		> 10000	> 10000		O=C(O)[C@@H](Cc1ccccc1)Nc1ncnc2c1CCCC2 [Compound 32, (5,6,7,8-tetrahydroquinazolin-4-yl)-D-phenylalanine]
				significantly less potent	CCN(CC)CCCC(C)Nc1c2ccc(Cl)cc2nc2ccc(OC)cc12 (stereo not shown) [quinacrine, reference compound]
